For the assay, the system named is rat CRF2R α receptor. Description: cAMP agonism at rat CRF2R α receptor in A7R5 rat aortic smooth muscle cells (Example 8). The format is cell-based. Conditions: cAMP HTRF, A7R5 rat aortic smooth muscle cell line, 0% HSA. On the procedure:
Cells were grown in a T175 culture flask placed at 37° C. to near confluence in medium (DMEM/10% FBS) and collected in 2 ml vials in cell culture medium containing 10% DMSO in a concentration of 10-50 million cells/ml. Each vial contained 1.8 ml cells. The vials were slowly frozen to −80° C. in isopropanol and then transferred in liquid nitrogen for storage. Prior to use, frozen cells were thawed quickly at 37° C. and washed (5 min at 900 rpm) with 20 ml cell buffer (1×HBSS; 20 mM HEPES; 0% or 0.1% HSA). Cells were resuspended in assay buffer (cell buffer plus 2 mM IBMX) and adjusted to a cell density of 1 million cells/ml. For measurement, 5 μl cells (final […]) and 5 μL of test compound were added to a 384-well plate, followed by incubation for 30 minutes at room temperature.
The CAMP content of cells was determined using a kit from Cisbio Corp. (cat. no. 62AM4PEC) based on HTRF (Homogenous Time Resolved Fluorescence). After addition of HTRF reagents diluted in lysis buffer (kit components), the plates were incubated for 1 h, followed by measurement of the fluorescence ratio at 665/620 nm. The percent activity value (E %) was calculated by setting 1000 nM of urocortin 2 (UCN2) as 100%. The in vitro potency of the compounds was quantified by determining the concentrations that caused 50% activation of maximal response (EC50).
Using the procedure described in Example 7, the activity of the compounds at the rat CRF2R α receptor was assessed. The A7R5 rat aortic smooth muscle cell line was used in this study.

Starred links: 1 amine or outer side, 2 acyl side, 3 side chain; linkers in the order of their positions; H or OH if unused. Non-standard residues stand in square brackets, D forms with d. Residues, ends and D or L forms follow the SMILES beside them. Groups on a side chain read outwards from the residue. *: point of attachment. C18 diacid = O=C(O)CCCCCCCCCCCCCCCCC(=O)*; γGlu = O=C(O)[C@H](CCC(=O)[*:2])N[*:1]; AEEA = NCCOCCOCC(=O)O; Aib = CC(C)(N)C(=O)O

In US12679878B2, “CRF2 receptor agonists and their use in therapy” (SANOFI, priority 2020, dated 2026) one finds EC50 data, which are given here for two compounds.

For orientation: EC50 means the concentration at which the effect is half-maximal. Higher therefore signals lower potency in that assay.

In turn, `CC[C@H](C)[C@H](NC(C)=O)C(=O)N[C@H](C(=O)N[C@@H](CC(C)C)C(=O)N[C@@H](CO)C(=O)N[C@@H](CC(C)C)C(=O)N[C@@H](CC(=O)O)C(=O)N[C@@H](C(=O)N1CCC[C@H]1C(=O)N[C@H](C(=O)N[C@@H](CCC(=O)O)C(=O)N[C@@H](CC(C)C)C(=O)N[C@@H](CCCCNC(=O)COCCOCCNC(=O)COCCOCCNC(=O)CC[C@H](NC(=O)CCCCCCCCCCCCCCCCC(=O)O)C(=O)O)C(=O)N[C@@H](CCC(N)=O)C(=O)N[C@H](C(=O)N[C@@H](CC(C)C)C(=O)N[C@@H](CC(C)C)C(=O)N[C@@H](CCC(=O)O)C(=O)N[C@@H](CCC(N)=O)C(=O)N[C@@H](CCC(=O)O)C(=O)N[C@@H](CCCNC(=N)N)C(=O)N[C@@H](CCC(N)=O)C(=O)N[C@@H](CCCCN)C(=O)NC(C)(C)C(=O)N[C@@H](CCC(N)=O)C(=O)N[C@@H](CCCNC(=N)N)C(=O)N[C@@H](CCC(=O)O)C(=O)N[C@@H](CCC(N)=O)C(=O)N[C@@H](C)C(=O)N[C@@H](CCC(=O)O)C(=O)N[C@@H](CCCCN)C(=O)N[C@@H](CC(N)=O)C(=O)N[C@@H](CCCCN)C(=O)N[C@@H](CCC(N)=O)C(=O)N[C@H](C(=O)N[C@@H](CC(C)C)C(=O)N[C@@H](CCC(=O)O)C(=O)N[C@@H](CCC(N)=O)C(=O)N[C@H](C(N)=O)C(C)C)[C@@H](C)CC)[C@@H](C)CC)[C@@H](C)CC)C(C)C)C(C)C` [compound 162] (Ac-IVLSLD[dV]PIELK([AEEA-AEEA-γGlu-C18 diacid])QILLEQERQK[Aib]QREQAEKNKQILEQV-NH2) registered an EC50 of 48.6 nM.

Turning to `CC[C@H](C)[C@H](N)C(=O)N[C@H](C(=O)N[C@@H](CC(C)C)C(=O)N[C@@H](CO)C(=O)N[C@@H](CC(C)C)C(=O)N[C@@H](CC(=O)O)C(=O)N[C@@H](C(=O)N1CCC[C@H]1C(=O)N[C@H](C(=O)N[C@@H](Cc1c[nH]cn1)C(=O)N[C@@H](CC(C)C)C(=O)N[C@@H](CCCCNC(=O)COCCOCCNC(=O)COCCOCCNC(=O)CC[C@H](NC(=O)CCCCCCCCCCCCCCCCC(=O)O)C(=O)O)C(=O)N[C@@H](CCC(N)=O)C(=O)N[C@H](C(=O)N[C@@H](CC(C)C)C(=O)N[C@@H](CC(C)C)C(=O)N[C@@H](CCC(=O)O)C(=O)N[C@@H](CCC(N)=O)C(=O)N[C@@H](CCC(=O)O)C(=O)N[C@@H](CCCNC(=N)N)C(=O)N[C@@H](CCC(N)=O)C(=O)N[C@@H](CCCCN)C(=O)NC(C)(C)C(=O)N[C@@H](CCC(N)=O)C(=O)N[C@@H](CCCNC(=N)N)C(=O)N[C@@H](CCC(=O)O)C(=O)N[C@@H](CCC(N)=O)C(=O)N[C@@H](C)C(=O)N[C@@H](CCC(=O)O)C(=O)N[C@@H](CCCCN)C(=O)N[C@@H](CC(N)=O)C(=O)N[C@@H](CCCCN)C(=O)N[C@@H](CCC(N)=O)C(=O)N[C@H](C(=O)N[C@@H](CC(C)C)C(=O)N[C@@H](CCC(=O)O)C(=O)N[C@@H](CCC(N)=O)C(=O)N[C@H](C(N)=O)C(C)C)[C@@H](C)CC)[C@@H](C)CC)[C@@H](C)CC)C(C)C)C(C)C` [compound 163] (H-IVLSLD[dV]PIHLK([AEEA-AEEA-γGlu-C18 diacid])QILLEQERQK[Aib]QREQAEKNKQILEQV-NH2; N-terminus assumed), the midpoint of the response, the EC50, lay at 1.5 nM.
